Assay results as given in publication PMC9653339, “Revisiting the anticancer properties of phosphane(9-ribosylpurine-6-thiolato)gold(I) complexes and their 9H-purine precursors” (Journal of Biological Inorganic Chemistry, 2022).

Tests used:
518A2 melanoma cells [1] = assay: ROS assay (NBT); assay type: cell-based, human; conditions: 518A2 cells, 1 µM and 5 µM, 24 h
Protocol: To determine cellular ROS levels, 2,2′-bis(4-nitrophenyl)-5,5′-diphenyl-3,3′-(3,3′-dimethoxy-4,4′-diphenylene) di-tetrazolium chloride (NBT) was used. The assay is based on the reduction of a yellow NBT tetrazolium salt to a blue formazan dye. 518A2 melanoma cells were seeded in 96-well flat bottom microtiter plates (Sarstedt) with 100 µL per well and a cell density of 0.1 × 10^6 cells per mL. The cells were allowed to grow overnight, followed by substance treatment with 11.1 µL of tenfold concentrated test compound dilutions and further incubated for 24 h. Then plates were centrifuged, the medium was discarded and 50 µL per well of NBT solution (0.1% in PBS) was added. The plates were further incubated for 4 h, centrifuged again and the medium was discarded. After that, 50 µL of 2M KOH solution and 65 µL DMSO had been added per well, incubation was continued for 30 min. The absorbances at 630 nm und 405 nm were measured, using a plate reader (Tecan). The background absorbance (405 nm) was subtracted from the formazan signal (630 nm). The resulting absorbance is directly proportional to the reactive oxygen species level. The control value was normalized to 100% ROS level, and accordingly, the viability of cells treated with test compounds was calculated. Means and SD were calculated from at least four independent experiments.

[2] = tested on: HCT-116^wt colon carcinoma cells; set-up: method as in Bär et al. [33]; conditions: MTT, value marked * ref Bär et al. [33]; cited from earlier work
[3] = tested on: HCT-116^p53−/− (p53 knockout mutant) colon carcinoma cells; set-up: method as in Bär et al. [33]; conditions: MTT, value marked * ref Bär et al. [33]; cited from earlier work
[4] = tested on: HeLa cervix carcinoma cells; set-up: method as in Bär et al. [33]; conditions: MTT, value marked * ref Bär et al. [33]; cited from earlier work
518A2 melanoma cells [5] = tested on: 518A2 melanoma cells; set-up: method as in Bär et al. [33]; conditions: MTT, value marked * ref Bär et al. [33]; cited from earlier work
[6] = tested on: human adult dermal fibroblasts HDFa; set-up: method as in Bär et al. [33]; conditions: MTT, value marked * ref Bär et al. [33]; cited from earlier work
[7] = tested on: circular plasmid pBR322 DNA; assay: Electrophoretic mobility shift assay (EMSA); assay type: binding
Protocol: To distinguish whether the DNA interaction is of an electrostatic or covalent nature, a second DNA interaction assay was conducted. 1.5 µg of circular plasmid pBR322 DNA were incubated in TE buffer (10 mM Tris–Cl, 1 mM EDTA, pH 8.0) with different concentrations of test compounds (final concentrations; 5 µM, 10 µM, 25 µM and 50 µM), whereas a corresponding volume of DMSO was added to the control (0 µM) to a final volume of 20 µL of each sample. Samples ware incubated for 16 h at 37 °C and subjected to 1% agarose gel electrophoresis in 0.5 × TBE buffer (45 mM Tris–Cl, 45 mM boric acid, 1.25 mM EDTA, pH 8.0) for 4 h at 66 V. Afterward, the agarose gel was stained for 20 min with EtdBr (10 µg/mL in 0.5 TBE buffer) solution and the result documented using UV excitation.

linear salmon sperm DNA = assay: Ethidium bromide saturation assay; assay type: binding
Protocol: The interaction of the complexes with linear DNA was assessed using the EtdBr assay. Ethidium bromide intercalates into DNA enhancing its fluorescence, while intercalation is hindered by alterations of the DNA structure e.g., by small molecules interfering with DNA [17]. In wells of a 96-well black flat bottom microtiter plates a solution of 1 µg linear salmon sperm DNA (ThermoFisher) in TE buffer (10 mM Tris–Cl, 1 mM EDTA, pH 8.0) was treated with concentration series (final concentrations; 25 µM, 50 µM, 75 µM and 100 µM) of the compounds, a corresponding amount of DMSO was used as a control (0 µM). After an incubation period of 2 h at 37 °C, 100 µL per well of ethidium bromide solution (10 µg/mL in TE buffer) was added and the plate was incubated for 5 min in the dark. Background samples were prepared analogously but without DNA addition. EtdBr–DNA adduct fluorescence was monitored at an excitation wavelength of 535 nm and an emission wavelength of 595 nm. After background subtraction, changes in fluorescence intensity were calculated in relation to control (set to 100%). Means and SD were calculated from at least three independent experiments.

518A2 melanoma cells [8] = assay: Comet assay; assay type: cell-based, human; conditions: 518A2 cells, 3.3 µM and 33 µM
Protocol: 518A2 melanoma cells were seeded at a concentration of 0.03 × 10^6 cells/mL and a volume of 2 mL seeded in 6-well plates and incubated overnight (37 °C, 95% humidity, 5% CO2). In addition, slides were coated with 1.5% agarose and allowed to harden before being stored in a moist place until the next day. On the second day, a 100-fold substance pre-dilution was added to the cells followed by a further incubation of 3–5 h. The selected concentration range was based on Mendonça et al.. Subsequently, the cells were harvested with trypsin and the cell number was adjusted to 0.02 × 10^6 cells/mL. 0.5% agarose solution was prepared and tempered to a maximum of 50 °C. After mixing 0.4 mL of cell suspension with 1.2 mL of tempered agarose, 200 µL was pipetted onto each of the previously coated slides. After these had hardened, a one-hour incubation followed at 4 °C in lysis buffer. The samples were then electrophoresed at 11 V for 20 min and then incubated for 15 min in neutralization buffer. Finally, the DNA was stained with 30 µL each of 1% ethidium bromide for 30 min, before the slides were washed with PBS for subsequent documentation under a fluorescent microscope with UV excitation (Zeiss Axiovert 135, Ex/Em 300 nm/605 nm).

[9] = Stability in cell culture medium by UV/Vis spectroscopy; assay type: physicochemical; conditions: 0–30 min and 3 days
Description: In a further corroboration of the complex stability, the similarity of the chalcogens sulfur and selenium was exploited. The selenolato complex 10 was synthesized and examined for its stability under identical conditions. Since ^77Se is a 1/2 spin nucleus with roughly 8% natural abundance, its compounds can be investigated directly. Depending on whether a break in the Se–Au or the Au–PR3 bond would occur, the shift would change by several hundred ppm and serve as unequivocal evidence. […] In addition, we investigated the stability of complexes 1 and 5 as representatives of the series of purines and purine nucleosides, respectively, in cell culture medium by UV/Vis spectroscopy.

| SMILES | Intracellular ROS level (518A2 melanoma cells [1]) | IC50 [2] [µM] | IC50 [3] [µM] | IC50 [4] [µM] | IC50 (518A2 melanoma cells [5]) [µM] | IC50 [6] [µM] | DNA interaction (EMSA) [7] | DNA interaction (ethidium bromide saturation) (linear salmon sperm DNA) | DNA damage (comet assay) (518A2 melanoma cells [8]) | Stability in cell culture medium (UV/Vis) [9] |
| --- | --- | --- | --- | --- | --- | --- | --- | --- | --- | --- |
| CC(=O)OC[C@H]1O[C@@H]([S-])[C@H](OC(C)=O)[C@@H](OC(C)=O)[C@@H]1OC(C)=O.CCP(CC)CC.[Au+] [Auranofin, auranofin] | highest ROS levels | 11.9 ± 0.4 | 5 ± 0.2 | 2.6 ± 0.4 | 1.8 ± 0.03 | 14 ± 1 |  |  |  |  |
| OC[C@H]1O[C@@H](n2cnc3c([S][Au][PH](c4ccccc4)(c4ccccc4)c4ccccc4)ncnc32)[C@H](O)[C@@H]1O [Complex 5, (1,7-Dihydro-6H-purine-9-β-D-ribofuranosyl-6-thiolato) (triphenylphosphane) gold(I)] |  |  |  |  |  |  | failed to reveal any positive effects | failed to reveal any positive effects | led to DNA damage | stable under the test conditions |
